# Target: T1, GPR119 receptor (Mesocricetus auratus, UniProt A0A1U8CD06)
# T1 construct: which endogenously express the GPR119 receptor; host or cells: HIT-T15 hamster pancreatic islet cells
# T1 sequence (A0A1U8CD06 1-334): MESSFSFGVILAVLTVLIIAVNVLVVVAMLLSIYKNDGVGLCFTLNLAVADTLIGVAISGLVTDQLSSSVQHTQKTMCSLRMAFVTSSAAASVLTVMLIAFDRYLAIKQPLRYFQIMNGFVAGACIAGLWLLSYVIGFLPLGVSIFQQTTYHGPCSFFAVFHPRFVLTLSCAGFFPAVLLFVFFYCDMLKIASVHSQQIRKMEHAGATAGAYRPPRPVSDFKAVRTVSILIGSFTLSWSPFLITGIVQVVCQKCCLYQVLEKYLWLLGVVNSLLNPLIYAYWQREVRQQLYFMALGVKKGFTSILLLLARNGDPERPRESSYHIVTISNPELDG
# Test: cAMP assay in HIT-T15 hamster pancreatic islet cells (functional agonist activity)
# Type: cell-based
# Details: HIT-T15 cells endogenously expressing GPR119; 30 min at 25° C.; intracellular cAMP
# Procedure: The functional agonist activities of compounds of the invention were characterized using a cAMP assay in HIT-T15 hamster pancreatic islet cells (American Type Culture Collection, Manassas, Va., USA) which endogenously express the GPR119 receptor. The cells were cultured in Kaighn's modification of Ham's F12 medium (Invitrogen Corporation, Carlsbad, Calif., USA) containing 10% horse serum, 2.5% FBS, and 1% Pen/Strep and grown in 225 cm^2 tissue culture flasks until they reached 75-85% confluence.
# The cells were harvested 24 h prior to assay with 5 ml Versene®, washed with Kaighn/F12 medium and then plated into white 384-well plates (9000 cells/well) containing Kaighn/F12 medium. Prior to assay, the culture medium was replaced with a Kaighn/F12 medium without phenol red (50 μL/well) containing 0.5 mM 3-isobutyl-1-methylxanthine, 0.5 mg/ml BSA. The cells were incubated in the dark for 30 min at 25° C. in the absence or presence of varying concentrations of agonist (1 μL, 100% DMSO). The incubation media was discarded and replaced with the assay lysis buffer (50 μL/well) provided in the Tropix cAMP-Screen® kit (Applied Biosystems, Foster City, Calif., USA) and the plates incubated for 45 min at 37° C. The intracellular levels of cAMP generated in the HIT-T 15 cells were measured using the Tropix kit. In brief, 20 μL of the lysate was transferred into pre-coated antibody plates (384-well; Tropix kit) along with 10 μL of alkaline phosphatase conjugate and 20 μL of anti-cAMP antibody and the plates were incubated for 1 h at room temperature while shaking. The plates were then washed 5 times with wash buffer (70 μL) and tapped dry. CSPD®/Sapphire-II™ RTU substrate/enhancer solution (Applied Biosystems, Foster City, Calif., USA; 30 μL) was added and the plates were incubated for 45 min at room temperature while shaking. The signal generated was measured using a Wallac Victor V Luminometer (PerkinElmer Life And Analytical Sciences, Inc., Waltham, Mass., USA; 1 sec/well). EC50 values were calculated using the XLFit program (ID Business Solutions Ltd., Guildford, Surrey, UK).
row,Structure (SMILES),EC50 [µM]
1,"CC(C)OC(=O)N1CCC(n2ncc3c(Oc4ccc(=O)n(C)n4)ncnc32)CC1 [Example 31, 4-[4-(1-Methyl-6-oxo-1,6-dihydro-pyridazin-3-yloxy)-pyrazolo[3,4-d]pyrimidin-1-yl]-piperidine-1-carboxylic acid isopropyl ester]",3.5
2,"CC(C)(C)OC(=O)N1CCC(n2ncc3c(Oc4ccc(S(C)(=O)=O)cc4F)ncnc32)CC1 [Example 60, 4-[4-(2-Fluoro-4-methanesulfonyl-phenoxy)-pyrazolo[3,4-d]pyrimidin-1-yl]-piperidine-1-carboxylic acid tert-butyl ester]",0.048
3,"Cc1ncccc1Oc1ncnc2c1cnn2C1CCN(C(=O)OCc2ccccc2)CC1 [Example 124, 4-[4-(2-Methyl-pyridin-3-yloxy)-pyrazolo[3,4-d]pyrimidin-1-yl]-piperidine-1-carboxylic acid benzyl ester]",0.24
4,"CCOC(=O)N1CCC(n2ncc3c(Oc4ccc(S(C)(=O)=O)cc4)ncnc32)CC1 [Example 13, 4-[4-(4-Methanesulfonyl-phenoxy)-pyrazolo[3,4-d]pyrimidin-1-yl]-piperidine-1-carboxylic acid ethyl ester]",0.65
5,"COc1ccccc1CN1CCC(n2ncc3c(Oc4ccc(S(C)(=O)=O)cc4)ncnc32)CC1 [Example 165, 4-(4-Methanesulfonyl-phenoxy)-1-[1-(2-methoxy-benzyl)-piperidin-4-yl]-1H-pyrazolo[3,4-d]pyrimidine]",1.4
6,"CC(C)(C)OC(=O)N1CCC(n2ncc3c(Nc4cc(F)c(F)cc4F)ncnc32)CC1 [Example 4, 4-[4-(2,4,5-Trifluoro-phenylamino)-pyrazolo[3,4-d]pyrimidin-1-yl]-piperidine-1-carboxylic acid tert-butyl ester]",0.53
7,"CS(=O)(=O)c1ccc(Nc2ncnc3c2cnn3C2CCN(Cc3ccccc3)CC2)c(F)c1 [Example 11, [1-(1-Benzyl-piperidin-4-yl)-1H-pyrazolo[3,4-d]pyrimidin-4-yl]-(2-fluoro-4-methanesulfonylphenyl)-amine]",2.5
8,"CCc1cc(Oc2ncnc3c2cnn3C2CCN(C(=O)OC(C)(C)C)CC2)nc(C)n1 [Example 103, 4-[4-(6-Ethyl-2-methyl-pyrimidin-4-yloxy)-pyrazolo[3,4-d]pyrimidin-1-yl]-piperidine-1-carboxylic acid tert-butyl ester]",3.4

# Continued, values first:
row,EC50 [µM],Structure (SMILES)
1,0.15,"CC(=O)c1ccc(Oc2ncnc3c2cnn3C2CCN(C(=O)OC(C)(C)C)CC2)cc1 [Example 64, 4-[4-(4-Acetyl-phenoxy)-pyrazolo[3,4-d]pyrimidin-1-yl]-piperidine-1-carboxylic acid tert-butyl ester]"
2,3.1,"CC(C)OC(=O)N1CCC(n2ncc3c(Nc4cc(F)c(F)cc4F)ncnc32)CC1 [Example 2, 4-[4-(2,4,5-Trifluoro-phenylamino)-pyrazolo[3,4-d]pyrimidin-1-yl]-piperidine-1-carboxylic acid isopropyl ester]"
3,0.031,"CS(=O)(=O)c1ccc(Oc2ncnc3c2cnn3C2CCN(C(=O)OC3CCCC3)CC2)c(F)c1 [Example 120, 4-[4-(2-Fluoro-4-methanesulfonyl-phenoxy)-pyrazolo[3,4-d]pyrimidin-1-yl]-piperidine-1-carboxylic acid cyclopentyl ester]"
4,0.65,"CC(C)(C)OC(=O)N1CCC(n2ncc3c(Oc4ccc(C(N)=O)cc4)ncnc32)CC1 [Example 62, 4-[4-(4-Carbamoyl-phenoxy)-pyrazolo[3,4-d]pyrimidin-1-yl]-piperidine-1-carboxylic acid tert-butyl ester]"
5,0.24,"Cc1nnnn1-c1ccc(Oc2ncnc3c2cnn3C2CCN(C(=O)OC(C)(C)C)CC2)cc1 [Example 84, 4-{4-[4-(5-Methyl-tetrazol-1-yl)-phenoxy]-pyrazolo[3,4-d]pyrimidin-1-yl}-piperidine-1-carboxylic acid tert-butyl ester]"

# Reference: patent US8188098B2, “GPR119 receptor agonists” (Hoffmann-La Roche Inc., priority 2008, dated 2012)
